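These data come from cells grown in 96-well plates and exposed to compound for 48 hours at five concentrations. GI50 marks 50% less growth.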 Calls of active or inactive are those of the source. Rule as the data show it: active = GI50 up to about 1.1 µM and inactive = higher.
What was measured:
Assay in all cases: inhibition of tumour cell growth, NCI panel, 48 h
786-0 = test system: 786-0
A498 = test system: A498
A549 = test system: A549
ACHN = test system: ACHN
BT-549 = test system: BT-549
CAKI-1 = test system: CAKI-1
CCRF-CEM = test system: CCRF-CEM
COLO 205 = test system: COLO 205
DU-145 = test system: DU-145
EKVX = test system: EKVX
HCC 2998 = test system: HCC 2998
HCT-116 = test system: HCT-116
HCT-15 = test system: HCT-15
HL-60 = test system: HL-60
HOP-62 = test system: HOP-62
HT-29 = test system: HT-29
Hs-578T = test system: Hs-578T
IGROV-1 = test system: IGROV-1
K562 = test system: K562
KM12 = test system: KM12
LOX IMVI = test system: LOX IMVI
M14 = test system: M14
MCF7 = test system: MCF7
MDA-MB-231 = test system: MDA-MB-231
MDA-MB-435 = test system: MDA-MB-435
MDA-N = test system: MDA-N
MOLT-4 = test system: MOLT-4
Malme-3M = test system: Malme-3M
NCI-H226 = test system: NCI-H226
NCI-H23 = test system: NCI-H23
NCI-H460 = test system: NCI-H460
NCI-H522 = test system: NCI-H522
OVCAR-8 = test system: OVCAR-8
PC-3 = test system: PC-3
RPMI-8226 = test system: RPMI-8226
SF-268 = test system: SF-268
SF-295 = test system: SF-295
SF-539 = test system: SF-539
SK-MEL-28 = test system: SK-MEL-28
SK-MEL-5 = test system: SK-MEL-5
SK-OV-3 = test system: SK-OV-3
SN12C = test system: SN12C
SNB-19 = test system: SNB-19
SNB-75 = test system: SNB-75
SR = test system: SR
SW-620 = test system: SW-620
T47D = test system: T47D
TK-10 = test system: TK-10
UACC-257 = test system: UACC-257
UACC-62 = test system: UACC-62
UO-31 = test system: UO-31
HOP-92 = test system: HOP-92
NCI/ADR-RES = test system: NCI/ADR-RES
OVCAR-3 = test system: OVCAR-3
OVCAR-4 = test system: OVCAR-4
OVCAR-5 = test system: OVCAR-5
RXF 393 = test system: RXF 393
SK-MEL-2 = test system: SK-MEL-2
U-251 = test system: U-251

Measured: GI50

COc1cc(C2SC(=N)Nc3c2c(C)nn3C(=O)Cc2ccccc2)ccc1O (configuration not stated)
> 100 µM: HCT-15
inactive: 786-0 > 100 µM | A498 > 100 µM | A549 > 100 µM | ACHN > 100 µM | BT-549 > 100 µM | CAKI-1 > 100 µM | CCRF-CEM > 100 µM | COLO 205 > 100 µM | DU-145 > 100 µM | EKVX > 100 µM | HCC 2998 > 100 µM | HCT-116 > 100 µM | HL-60 > 100 µM | HOP-62 > 100 µM | HT-29 > 100 µM | Hs-578T > 100 µM | IGROV-1 > 100 µM | K562 > 100 µM | KM12 > 100 µM | LOX IMVI > 100 µM | M14 > 100 µM | MCF7 > 100 µM | MDA-MB-231 > 100 µM | MDA-MB-435 > 100 µM | MDA-N > 100 µM | MOLT-4 > 100 µM | Malme-3M > 100 µM | NCI-H226 > 100 µM | NCI-H23 > 100 µM | NCI-H460 > 100 µM | NCI-H522 > 100 µM | OVCAR-8 > 100 µM | PC-3 > 100 µM | RPMI-8226 > 100 µM | SF-268 > 100 µM | SF-295 > 100 µM | SF-539 > 100 µM | SK-MEL-28 > 100 µM | SK-MEL-5 > 100 µM | SK-OV-3 > 100 µM | SN12C > 100 µM | SNB-19 > 100 µM | SNB-75 26.8 µM | SR > 100 µM | SW-620 > 100 µM | T47D > 100 µM | TK-10 > 100 µM | UACC-257 > 100 µM | UACC-62 > 100 µM | UO-31 > 100 µM

O=c1cc(NNc2ccccc2F)[nH]c(=O)[nH]1
inactive: 786-0 15.3 µM | A498 59.8 µM | A549 55 µM | ACHN 18.3 µM | BT-549 17.5 µM | CAKI-1 13 µM | CCRF-CEM 17.5 µM | COLO 205 19.2 µM | DU-145 43.3 µM | HCC 2998 17.9 µM | HCT-116 16.9 µM | HL-60 11.9 µM | HOP-92 15.7 µM | HT-29 17.9 µM | Hs-578T 21.9 µM | IGROV-1 16.7 µM | K562 21.8 µM | KM12 15.3 µM | LOX IMVI 16 µM | M14 17.7 µM | MCF7 6.61 µM | MDA-MB-231 16.3 µM | MDA-N 18.5 µM | MOLT-4 23.4 µM | Malme-3M 18.8 µM | NCI-H226 21.2 µM | NCI-H23 17.3 µM | NCI-H522 16.2 µM | NCI/ADR-RES 16.6 µM | OVCAR-3 17.7 µM | OVCAR-4 17.7 µM | OVCAR-5 19.5 µM | PC-3 18.9 µM | RPMI-8226 17.8 µM | RXF 393 1.26 µM | SF-268 19.4 µM | SF-539 16.8 µM | SK-MEL-28 20.5 µM | SK-MEL-2 16.7 µM | SK-MEL-5 22.3 µM | SK-OV-3 21.1 µM | SNB-19 > 100 µM | SNB-75 25.9 µM | SR 1.35 µM | SW-620 18 µM | TK-10 14.4 µM | U-251 17.7 µM | UACC-257 17.7 µM | UACC-62 17.1 µM | UO-31 12.2 µM
active: NCI-H460 0.0667 µM | T47D 0.679 µM
16 µM: HCT-15

N#Cc1ccc(N2CCOCC2)cc1
active: CCRF-CEM 0.975 µM
inactive: 786-0 > 100 µM | A498 42.8 µM | A549 > 100 µM | ACHN > 100 µM | BT-549 24.9 µM | CAKI-1 > 100 µM | COLO 205 > 100 µM | DU-145 > 100 µM | EKVX > 100 µM | HCT-116 > 100 µM | HL-60 > 100 µM | HOP-62 > 100 µM | HOP-92 > 100 µM | HT-29 > 100 µM | Hs-578T > 100 µM | IGROV-1 > 100 µM | KM12 > 100 µM | LOX IMVI 23 µM | M14 > 100 µM | MCF7 > 100 µM | MDA-MB-231 > 100 µM | MDA-MB-435 > 100 µM | MDA-N > 100 µM | MOLT-4 > 100 µM | NCI-H23 80.5 µM | NCI-H460 > 100 µM | NCI-H522 34.2 µM | NCI/ADR-RES > 100 µM | OVCAR-3 > 100 µM | OVCAR-4 > 100 µM | OVCAR-5 > 100 µM | OVCAR-8 > 100 µM | PC-3 > 100 µM | RXF 393 > 100 µM | SF-268 > 100 µM | SF-295 > 100 µM | SF-539 > 100 µM | SK-MEL-28 > 100 µM | SK-MEL-2 > 100 µM | SK-MEL-5 > 100 µM | SK-OV-3 > 100 µM | SN12C > 100 µM | SNB-19 > 100 µM | SNB-75 > 100 µM | SW-620 > 100 µM | T47D > 100 µM | TK-10 > 100 µM | U-251 > 100 µM | UACC-257 > 100 µM | UACC-62 > 100 µM | UO-31 > 100 µM
> 100 µM: HCT-15

From ChEMBL document CHEMBL1201862, “PubChem BioAssay data set” (2004)
